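Briefly, cells in 96-well plates were exposed to five compound concentrations for 48 h, and endpoints were estimated by linear interpolation. At the TGI there is no net growth.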
Key:
Assay in all cases: inhibition of tumour cell growth, NCI panel, 48 h
RXF-631 renal = tested on: RXF-631 renal
SR leukemia = tested on: SR leukemia
SNB-78 CNS = tested on: SNB-78 CNS
MDA-MB-231 breast = tested on: MDA-MB-231 breast
SF-268 CNS = tested on: SF-268 CNS
OVCAR-5 ovarian = tested on: OVCAR-5 ovarian
UACC-257 melanoma = tested on: UACC-257 melanoma
EKVX NSCLC = tested on: EKVX NSCLC
M19-MEL melanoma = tested on: M19-MEL melanoma
DMS 273 small cell lung = tested on: DMS 273 small cell lung
XF 498 CNS = tested on: XF 498 CNS
ACHN renal = tested on: ACHN renal
DMS 114 small cell lung = tested on: DMS 114 small cell lung

Row | SMILES | TGI (RXF-631 renal) [µM] | TGI (SR leukemia) [µM] | TGI (SNB-78 CNS) [µM] | TGI (MDA-MB-231 breast) [µM] | TGI (SF-268 CNS) [µM] | TGI (OVCAR-5 ovarian) [µM] | TGI (UACC-257 melanoma) [µM] | TGI (EKVX NSCLC) [µM] | TGI (M19-MEL melanoma) [µM] | TGI (DMS 273 small cell lung) [µM] | TGI (XF 498 CNS) [µM] | TGI (ACHN renal) [µM] | TGI (DMS 114 small cell lung) [µM]
1 | COC1=CC(=O)c2c(O)c3c(c(O)c2C1=O)C[C@](C)(O)C[C@@H]3O | 11.2 | 12.1 | 16.3 | 28.3 | 32.8 | 27.8 | 5.28 | 23.6 | 0.73 | 8.37 | 9.5 | 16 | 3.7
2 | COc1cccc(NC(=O)CC(=O)NNCC(=O)Nc2nnc(-c3ccc(N(CCC#N)S(=O)(=O)c4ccccc4)cc3)s2)c1 | > 100 | > 100 | > 100 | – | > 100 | > 100 | – | > 100 | > 100 | > 100 | > 100 | > 100 | > 100
3 | CN1Cc2c(nc(-c3ccc(Br)cc3)c[n+]2[O-])N(C)C1 | – | > 100 | > 100 | – | > 100 | > 100 | > 100 | > 100 | – | > 100 | > 100 | > 100 | > 100
4 | CC(C)(C)c1cc(C(=O)/C=C/c2ccn[nH]2)cc(C(C)(C)C)c1O | – | 3.61 | – | 3.97 | 6.39 | 13.6 | 11.2 | 28.4 | – | – | – | 3.03 | –
5 | CNC(=S)N/N=C(\C)c1nc2ncccc2[nH]1 | – | > 100 | – | > 100 | > 100 | > 100 | > 100 | > 100 | – | – | – | > 100 | –
6 | CC(NNC(=O)c1ccncc1)c1ccc(Cl)c(Cl)c1 (stereo unspecified) | – | > 100 | – | > 100 | > 100 | > 100 | > 100 | > 100 | – | – | – | > 100 | –
7 | CN(CCc1ccc(Cl)c(Cl)c1)CCN(C)CCN1CCCC1 | – | 17.2 | – | 23 | 29.8 | 43.3 | 5.04 | 35.5 | – | – | – | 47.2 | –
8 | c1csc(-c2csc(-c3ccsc3)c2)c1 | – | > 100 | – | > 100 | > 100 | > 100 | > 100 | > 100 | – | – | – | > 100 | –
9 | Cc1c(C#N)c2nnn(-c3ccccc3)c(=O)n2c1-c1ccccc1 | – | 19.3 | – | > 100 | > 100 | > 100 | > 100 | > 34.5 | – | – | – | > 100 | –
10 | COc1ccc2c(-c3ccc(OCCN(C)C)cc3)c(Oc3ccc(Cl)cc3)c(=O)oc2c1 | – | 5.06 | – | 33.5 | 32.9 | 36.8 | 3.75 | 26.2 | – | – | – | 20.9 | –
11 | COC(=O)C1=C(C)N(NC(=O)c2ccccc2)C2(O)CCCC(=O)C12C (stereo unspecified) | > 100 | – | > 100 | – | – | > 100 | > 100 | – | – | > 100 | > 100 | > 100 | > 100
12 | O=C1c2ccccc2-c2nc(-c3ccccc3)cc3c2c1nc1ccccc13 | – | 11.9 | – | 59.3 | 65.7 | 61.4 | 30.6 | 88.3 | – | – | – | 91.5 | –
13 | COc1ccc2c(c1OC)C(=O)O[C@@H]2[C@H]1c2cc3c(cc2CCN1C)OCO3 | – | > 100 | – | > 100 | > 100 | > 100 | > 100 | > 100 | – | – | – | > 100 | –
14 | N#CC1(c2ccccc2)CCN(C2(c3ccccc3)CCCCC2)CC1 | – | > 100 | – | > 100 | > 100 | > 100 | > 100 | > 100 | – | – | – | > 100 | –
15 | COc1cc([C@H]2Oc3c(OC)cc(CCCO)cc3[C@@H]2CO)ccc1O | – | > 100 | – | > 100 | > 100 | > 100 | > 100 | > 100 | – | – | – | > 100 | –
16 | CC(=O)CC(C)(C)NC(=O)[C@@]1(O)CC[C@H]2[C@@H]3CCC4=CC(=O)CC[C@@H]4[C@H]3CC[C@@]21C | – | > 100 | – | > 100 | > 100 | > 100 | > 100 | > 100 | – | – | – | > 100 | –
17 | O=c1[nH]c2cc3cccnc3c(Cl)c2nc1CBr | – | 73.3 | – | 34.4 | 64.7 | 35.9 | 54.9 | 52.1 | – | – | – | 20.3 | –
18 | CN(/N=N/c1nc[nH]c1C(N)=O)C1CCCCC1 | – | > 100 | > 100 | – | > 100 | > 100 | > 100 | > 100 | > 100 | > 100 | > 100 | > 100 | > 100
19 | CN(C)Cc1cc(C(=O)/C=C/c2cccc(Cl)c2)cc(CN(C)C)c1O | – | 6.93 | – | 8.87 | 24.1 | 19 | 19.9 | 25.4 | – | – | – | 10.3 | –
